Laboratory results from ChEMBL document CHEMBL3994603, “Antioxidant Flavonols and Phenolic Compounds from Atraphaxis frutescens and Their Inhibitory Activities against Insect Phenoloxidase and Mushroom Tyrosinase” (J Nat Prod, 2016).

Target: Mushroom tyrosinase (Agaricus bisporus, UniProt O42713+Q00024+C7FF04+C7FF05)
Description: Inhibition of mushroom tyrosinase using L-DOPA as substrate preincubated for 5 mins followed by substrate addition measured for 10 mins by spectrophotometric method

Row | IC50 [mM] | Compound
1 | 4.3 | O=C(/C=C/c1ccc(O)cc1)NCCc1ccc(O)c(O)c1
2 | > 5 | COc1cc(O)c2c(=O)c(O)c(-c3cc(O)c(O)c(O)c3)oc2c1OC(C)=O
3 | > 5 | COc1cc(O)c2c(=O)c(O[C@@H]3O[C@@H](C)[C@H](O)[C@@H](O)[C@H]3O)c(-c3ccc(O)c(O)c3)oc2c1OC(C)=O
4 | > 5 | COc1cc(CO[C@@H]2O[C@H](CO)[C@@H](O)[C@H](O)[C@H]2O)cc(OC)c1OC
5 | > 5 | COc1cc(CO[C@@H]2O[C@H](CO[C@@H]3O[C@@H](C)[C@H](O)[C@@H](O)[C@H]3O)[C@@H](O)[C@H](O)[C@H]2O)cc(OC)c1OC
6 | 1.2 | COc1cc(O)c2c(=O)c(O[C@@H]3O[C@@H](C)[C@H](O)[C@@H](O)[C@H]3O)c(-c3cc(O)c(O)c(O)c3)oc2c1O
7 | > 5 | COc1cc(O)c2c(=O)c(O)c(-c3cc(O)c(O)c(O)c3)oc2c1O
8 | 2.2 | COc1cc(O)c2c(=O)c(O[C@@H]3O[C@@H](C)[C@H](O)[C@@H](O)[C@H]3O)c(-c3ccc(O)c(O)c3)oc2c1O
9 | 0.9 | COc1cc(O)c2c(=O)c(O[C@@H]3O[C@@H](C)[C@H](O)[C@@H](O)[C@H]3O)c(-c3cc(O)c(O)c(O)c3)oc2c1O[C@@H]1O[C@H](CO)[C@@H](O)[C@H](O)[C@H]1O
10 | 4 | COc1cc(O)c2c(=O)c(O[C@@H]3O[C@@H](C)[C@H](O)[C@@H](O)[C@H]3O)c(-c3ccc(O)c(O)c3)oc2c1O[C@@H]1O[C@H](CO)[C@@H](O)[C@H](O)[C@H]1O
11 | 4.7 | COc1cc(O)c2c(=O)c(O[C@@H]3O[C@@H](C)[C@H](O)[C@@H](O)[C@H]3O)c(-c3cc(O)c(O)c(O)c3)oc2c1OC(C)=O
12 | > 5 | COc1cc(O)c2c(=O)c(O)c(-c3ccc(O)c(O)c3)oc2c1O
13 | 1.1 | COc1cc(O)c2c(=O)c(O[C@@H]3O[C@@H](C)[C@H](O)[C@@H](O)[C@H]3O)c(-c3cc(O)c(O)c(O)c3)oc2c1
14 | > 5 | COc1cc(O)c2c(=O)c(O)c(-c3ccc(O)c(O)c3)oc2c1OC(C)=O
15 | 2 | C[C@@H]1O[C@@H](Oc2c(-c3cc(O)c(O)c(O)c3)oc3cc(O)cc(O)c3c2=O)[C@H](O)[C@H](O)[C@H]1O
16 | > 5 | Oc1cc(O)c2c(c1)O[C@H](c1ccc(O)c(O)c1)[C@H](O)C2 [(-)-EPICATECHIN]
17 | > 5 | O=C(/C=C/c1ccc(O)cc1)NCCc1ccc(O)cc1 [N-P-COUMAROYL TYRAMINE]
18 | > 5 | COc1cc(/C=C/C(=O)NCCc2ccc(O)cc2)ccc1O [N-TRANS-FERULOYL TYRAMINE]
19 | > 5 | COc1cc(/C=C/C(=O)NCCc2ccc(O)c(O)c2)ccc1O [N-TRANS-FERULOYLDOPAMINE]
20 | 0.7 | Cc1c(C)c2c(c(C)c1O)CCC(C)(C(=O)O)O2 (configuration not stated) [TROLOX]

Row | Compound | IC50 [mM]
21 | Oc1cc(O)c2c(c1)O[C@H](c1cc(O)c(O)c(O)c1)[C@H](O)C2 [EPIGALLOCATECHIN] | 0.7
22 | Oc1cc(O)c2c(c1)O[C@H](c1cc(O)c(O)c(O)c1)[C@@H](O)C2 [GALLOCATECHIN] | 0.16
